In patent publication US11691986B2, “PTEFB inhibiting macrocyclic compounds” (Bayer Aktiengesellschaft, priority 2017, dated 2023):
“And” between values parts separate entries of the source, which are not always exact repeats. Equal entries are not always repeated.

Assays:
CDK9/CycT1 = biological target: T1, CDK9/CycT1 (Homo sapiens, UniProt P50750); assay: CDK9/CycT1 high ATP kinase assay (TR-FRET); type: biochemical; conditions: 2 mM ATP; for IC50: Method 1b; for Selectivity high ATP CDK9 over high ATP CDK2: IC50 (high ATP CDK2)/IC50 (high ATP CDK9): minimal values where CDK9 IC50 is at the assay limit of about 1-2 nM
T1 construct: Recombinant full-length His-tagged human CDK9 and CycT1; His; purchased Life Technologies PV4131; host or cells: insect cells
T1 sequence (P50750 whole entry): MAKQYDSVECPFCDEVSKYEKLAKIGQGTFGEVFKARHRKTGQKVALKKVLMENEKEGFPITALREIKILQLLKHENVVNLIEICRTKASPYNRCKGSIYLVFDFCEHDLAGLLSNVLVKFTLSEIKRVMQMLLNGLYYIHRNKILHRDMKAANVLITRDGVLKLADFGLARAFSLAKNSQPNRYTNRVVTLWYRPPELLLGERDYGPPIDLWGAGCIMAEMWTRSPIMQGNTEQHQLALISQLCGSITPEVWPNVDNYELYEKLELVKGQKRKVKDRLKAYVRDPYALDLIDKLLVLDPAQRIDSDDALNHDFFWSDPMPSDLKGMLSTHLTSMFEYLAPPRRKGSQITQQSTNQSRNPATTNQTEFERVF
T1 sequence (O60563 whole entry partner): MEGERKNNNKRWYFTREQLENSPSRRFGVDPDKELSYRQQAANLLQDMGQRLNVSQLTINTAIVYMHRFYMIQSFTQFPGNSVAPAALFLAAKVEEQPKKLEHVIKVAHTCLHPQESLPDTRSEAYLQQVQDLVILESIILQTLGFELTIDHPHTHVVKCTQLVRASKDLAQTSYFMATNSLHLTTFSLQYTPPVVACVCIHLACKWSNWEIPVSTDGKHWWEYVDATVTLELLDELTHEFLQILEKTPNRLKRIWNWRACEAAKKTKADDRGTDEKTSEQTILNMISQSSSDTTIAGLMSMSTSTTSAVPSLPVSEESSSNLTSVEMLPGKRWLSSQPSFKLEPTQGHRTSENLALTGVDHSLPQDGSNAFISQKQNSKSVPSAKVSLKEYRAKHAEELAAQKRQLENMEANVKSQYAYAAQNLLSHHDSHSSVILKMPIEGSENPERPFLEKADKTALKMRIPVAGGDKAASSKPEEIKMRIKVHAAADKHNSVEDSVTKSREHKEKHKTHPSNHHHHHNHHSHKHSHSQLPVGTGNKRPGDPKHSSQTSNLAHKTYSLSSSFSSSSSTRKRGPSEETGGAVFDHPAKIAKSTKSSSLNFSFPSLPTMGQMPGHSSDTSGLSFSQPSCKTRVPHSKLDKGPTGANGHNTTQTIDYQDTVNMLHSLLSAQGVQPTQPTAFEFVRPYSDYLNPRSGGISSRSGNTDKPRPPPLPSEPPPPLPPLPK
Method: 1b. CDK9/CycT1 High ATP Kinase Assay
CDK9/CycT1-inhibitory activity of compounds of the present invention at a high ATP concentration after preincubation of enzyme and test compounds was quantified employing the CDK9/CycT1 TR-FRET assay as described in the following paragraphs.
Recombinant full-length His-tagged human CDK9 and CycT1, expressed in insect cells and purified by Ni-NTA affinity chromatography, were purchased from Life Technologies (Cat. No PV4131). As substrate for the kinase reaction biotinylated peptide biotin-Ttds-YISPLKSPYKISEG (C-terminus in amide form) was used which can be purchased e.g. form the company JERINI peptide technologies (Berlin, Germany).
(§1) For the assay 50 nl of a 100 fold concentrated solution of the test compound in DMSO was pipetted into either a black low volume 384 well microtiter plate or a black 1536 well microtiter plate (both Greiner Bio-One, Frickenhausen, Germany), 2 μl of a solution of CDK9/CycT1 in aqueous assay buffer [50 mM Tris/HCl pH 8.0, 10 mM MgCl2, 1.0 mM dithiothreitol, 0.1 mM sodium ortho-vanadate, 0.01% (v/v) Nonidet-P40 (Sigma)] were added and the mixture was incubated for 15 min at 22° C. to allow pre-binding of the test compounds to the enzyme before the start of the kinase reaction. […] The concentration of CDK9/CycT1 was adjusted depending of the activity of the enzyme lot and was chosen appropriate to have the assay in the linear range, typical concentrations were in the range of 0.5 μg/ml. The reaction was stopped by the addition of 3 μl of a solution of TR-FRET detection reagents (0.33 μM streptavidine-XL665 [Cisbio Bioassays, Codolet, France] and 1.67 nM anti-RB(pSer807/pSer811)-antibody from BD Pharmingen [#558389] and 2 nM LANCE EU-W1024 labeled anti-mouse IgG antibody [Perkin-Elmer, product no. AD0077]) in an aqueous EDTA-solution (167 mM EDTA, 0.2% (w/v) bovine serum albumin in 100 mM HEPES pH 7.5).
(§2) The resulting mixture was incubated 1 h at 22° C. to allow the formation of complex between the phosphorylated biotinylated peptide and the detection reagents. Subsequently the amount of phosphorylated substrate was evaluated by measurement of the resonance energy transfer from the Eu-chelate to the streptavidine-XL. Therefore, the fluorescence emissions at 620 nm and 665 nm after excitation at 350 nm was measured in a TR-FRET reader, e.g. a Pherastar (BMG Labtechnologies, Offenburg, Germany) or a Viewlux (Perkin-Elmer). The ratio of the emissions at 665 nm and at […] was taken as the measure for the amount of phosphorylated substrate. The data were normalised (enzyme reaction without inhibitor=0% inhibition, all other assay components but no enzyme=100% inhibition).

CDK2/CycE = biological target: T2, CDK2/CycE (Homo sapiens, UniProt P24941); assay: CDK2/CycE high ATP kinase assay (TR-FRET); type: biochemical; conditions: 2 mM ATP, Method 2b
T2 construct: GST; purchased ProQinase GmbH (Freiburg, Germany); host or cells: insect cells (Sf9)
Method: 2b. CDK2/CycE High ATP Kinase Assay
CDK2/CycE-inhibitory activity of compounds of the present invention at 2 mM adenosine-tri-phosphate (ATP) was quantified employing the CDK2/CycE TR-FRET (TR-FRET=Time Resolved Fluorescence Energy Transfer) assay as described in the following paragraphs.
Recombinant fusion proteins of GST and human CDK2 and of GST and human CycE, expressed in insect cells (Sf9) and purified by Glutathion-Sepharose affinity chromatography, were purchase from ProQinase GmbH (Freiburg, Germany). As substrate for the kinase reaction biotinylated peptide biotin-Ttds-YISPLKSPYKISEG (C-terminus in amid form) was used which can be purchased e.g. form the company JERINI peptide technologies (Berlin, Germany).
as §1, with “CDK2/CycE” for “CDK9/CycT1”, “about 10 ng/ml.” for “in the range of 0.5 μg/ml.”, “(0.333” for “(0.33”, “AD0077, as an alternative a Terbium-cryptate-labeled anti-mouse IgG antibody from Cisbio Bioassays can be used])” for “AD0077])”
as §2

[1] = biological target: T3, human PTEFb (CDK9/Cyclin T1) (Homo sapiens, UniProt P50750); assay: Surface Plasmon Resonance PTEFb; type: binding; conditions: SPR, 37° C.; for Target residence time: 1/koff; for Kd: * = arithmetic mean of more than one value, read-out: Equilibrium dissociation constant KD
T3 construct: purchased ProQinase, Freiburg, Germany
T3 sequence (P50750 whole entry): as the sequence (P50750 whole entry) above
T3 sequence (O60563 whole entry partner): as the sequence (O60563 whole entry partner) above
From the text: 8. Surface Plasmon Resonance PTEFb
The ability of the compounds according to the invention to bind human PTEFb may be determined using surface plasmon resonance (SPR). KD values and koff values may be measured using a Biacore® T200 instrument (GE Healthcare, Uppsala, Sweden).
For SPR measurements, recombinant human PTEFb (CDK9/Cyclin T1 recombinant human active protein kinase purchased from ProQinase, Freiburg, Germany) is immobilized using standard amine coupling (Johnsson B et al, Anal Biochem. 1991 Nov. 1; 198(2):268-77). Briefly, carboxymethylated dextran biosensor chips (CM7, GE Healthcare) are activated with N-ethyl-N′-(3-dimethylaminopropyl)-carbodiimide hydrochloride (EDC) and N-hydroxysuccinimide (NHS) according to the supplier's instructions. Human PTEFb is diluted in 1×HBS-EP+(GE Healthcare) and injected on the activated chip surface. Subsequently, a 1:1 solution of 1 M ethanolamine-HCl (GE Healthcare) and 1×HBS-EP is injected to block unreacted groups, resulting in approximately 4000 response units (RU) of immobilized protein. A reference surface is generated by treatment with NHS-EDC and ethanolamine-HCl. Compounds are dissolved in 100% dimethylsulfoxide (DMSO, Sigma-Aldrich, Germany) to a concentration of 10 mM and subsequently diluted in running buffer (1×HBS-EP+pH 7.4 [generated from HBS-EP+Buffer 10×(GE Healthcare): 0.1 M HEPES, 1.5 M NaCl, 30 mM EDTA and 0.5% v/v Surfactant P20], 1% v/v DMSO). For kinetic measurements, serial dilutions of compound (0.078 nM up to 25 nM) are injected over immobilized protein. Binding kinetics is measured at 37° C. with a flow rate of 100 μl/min in running buffer. Compound concentrations are injected for 70 s followed by a dissociation time of 1100 s. The resulting sensorgrams are double-referenced against the reference surface as well as against blank injections.
The double-referenced sensorgrams are fit to a simple reversible Langmuir 1:1 reaction mechanism as implemented in the Biacore® T200 evaluation software 2.0 (GE Healthcare). In cases were full compound dissociation has not occurred at the end of the dissociation phase, the Rmax parameter (response at saturation) is fit as local variable. In all other cases, Rmax is fit as global variable.

A2780 cells = assay: Proliferation assay, A2780 (Cell Titre-Glo); type: cell-based; conditions: Homo sapiens; A2780, 72-hour exposure; read-out: Inhibition of A2780 cell proliferation IC50
Method: A2780 human ovarian carcinoma cells (ECACC #93112519) and non-adherent MOLM-13 human acute myeloid leukemia cells (DSMZ ACC 554) were seeded at a density of 3,000 cell/well (A2780) or 5,000 cells/well (MOLM-13) in a 96-well multititer plate in 150 μL of growth medium supplemented 10% fetal calf serum. After 24 hours, cell viability of one plate (zero-point plate) was determined with the Cell Titre-Glo Luminescent Cell Viability Assay (Promega), while the medium of the other plates was supplemented with the test substances in various concentrations (0 μM, as well as in the range of 0.0001-10 μM; the final concentration of the solvent dimethyl sulfoxide was adjusted to 0.1%) using a Hewlett-Packard HP D300 Digital Dispenser. Cell viability was assessed after 72-hour exposure with the Cell Titre-Glo Luminescent Cell Viability Assay (Promega). IC50 values (inhibitory concentration at 50% of maximal effect) were determined by means of a 4 parameter fit on measurement data which were normalized to vehicle (DMSO) treated cells (=100%) and measurement readings taken immediately before compound exposure (=0%).

bronchospasms = conditions: in vivo; cited from earlier work

SMILES	IC50 (CDK9/CycT1)	Selectivity high ATP CDK9 over high ATP CDK2: IC50 (high ATP CDK2)/IC50 (high ATP CDK9) (CDK9/CycT1)	IC50 (CDK2/CycE)	Target residence time ([1]; * = arithmetic mean)	Kd [1]	Dissociation rate constant koff ([1]; * = arithmetic mean, < = below what is resolvable)	IC50 (A2780 cells)	protection against bronchospasms (duration) (bronchospasms)
CS(=N)(=O)Cc1cc2cc(c1)OCCCCNc1cc(ccc1F)-c1nc(ncc1F)N2 (single isomer, unassigned) [Example 10, 3,20-difluoro-10-[(S-methylsulfonimidoyl)methyl]-13-oxa-5,7,18,25-tetraazatetracyclo[17.3.1.1^2,6.1^8,12]pentacosa-1(23),2(25),3,5,8(24),9,11,19,21-nonaene]	1.6 nM	79	130 nM	37* min	0.15 nM	4.5E−4* 1/s		
CS(=N)(=O)Cc1cc2cc(c1)OCCCCNc1cc(ccc1F)-c1nc(ncc1F)N2 (single isomer, unassigned) [Example 9, 3,20-difluoro-10-[(S-methylsulfonimidoyl)methyl]-13-oxa-5,7,18,25-tetraazatetracyclo[17.3.1.1^2,6.1^8,12]pentacosa-1(23),2(25),3,5,8(24),9,11,19,21-nonaene]	2.3 nM	37	85 nM	> 208 min	0.046 nM and 0.022 nM and 0.015 nM and 0.062 nM and 0.11 nM and 0.031 nM and 0.07 nM and 0.054 nM			
CS(=N)(=O)Cc1cc2cc(c1)OCCCCCNc1cc(ccc1F)-c1nc(ncc1F)N2 (racemic) [Example 5, (rac)-3,21-difluoro-10-[(S-methylsulfonimidoyl)methyl]-13-oxa-5,7,19,26-tetraazatetracyclo[18.3.1.1^2,6.1^8,12]hexacosa-1(24),2(26),3,5,8(25),9,11,20,22-nonaene]	1.6 nM	216	357 nM				3.4 nM	
C[N+]1(C)[C@@H]2C[C@@H](OC(=O)C(O)(c3cccs3)c3cccs3)C[C@H]1[C@@H]1O[C@@H]12 [tiotropium]								more than 6 hours

More lines, in order of falling IC50 (CDK9/CycT1), values ahead:

IC50 (CDK9/CycT1)	Selectivity high ATP CDK9 over high ATP CDK2: IC50 (high ATP CDK2)/IC50 (high ATP CDK9) (CDK9/CycT1)	IC50 (CDK2/CycE)	Target residence time ([1]; * = arithmetic mean)	Kd [1]	Dissociation rate constant koff ([1]; * = arithmetic mean, < = below what is resolvable)	IC50 (A2780 cells)	SMILES	protection against bronchospasms (duration) (bronchospasms)
4 nM	6.3	25 nM				6.7 nM	CS(=N)(=O)Cc1cc2nc(c1)OCCCCNc1cc(ccc1F)-c1cc(ncc1F)N2 (racemic) [Example 6, (rac)-3,20-difluoro-10-[(S-methylsulfonimidoyl)methyl]-13-oxa-5,7,18,24-tetraazatetracyclo[17.3.1.1^2,6.1^8,12]pentacosa-1(23),2(25),3,5,8(24),9,11,19,21-nonaene]	
3.9 nM	762	2980 nM				71 nM	CSCc1cc2cc(c1)OC(C)CCCNc1cc(ccc1F)-c1nc(ncc1F)N2 (racemic) [Example 7, (rac)-3,20-difluoro-14-methyl-10-[(methylsulfanyl)methyl]-13-oxa-5,7,18,25-tetraazatetracyclo[17.3.1.1^2,6.1^8,12]pentacosa-1(23),2(25),3,5,8(24),9,11,19,21-nonaene]	
1.4 nM	2740	3670 nM				31 nM	CC(C)(C)OC(=O)N=S(C)(=O)Cc1cc2cc(c1)OCCCCCNc1cc(ccc1F)-c1nc(ncc1F)N2 (racemic) [Example 4, (rac)-tert-butyl [{[3,21-difluoro-13-oxa-5,7,19,26-tetraazatetracyclo[18.3.1.1^2,6.1^8,12]hexacosa-1(24),2(26),3,5,8(25),9,11,20,22-nonaen-10-yl]methyl}(methyl)oxido-λ^6-sulfanylidene]carbamate]	
